Columns and labels:
[1] = tested on: A375 cells; test: Antiproliferative MTT assay; assay type: cell-based; details: Homo sapiens, A-375, 48 h, mean ± S.D. of two experiments
Protocol: (§1) The effect of final target compounds over A375 and SK-MEL-5 was performed using reported procedures (detailed procedure is located in the Supplementary Information page 51s). […]
(§2) Evaluation of the Antiproliferative Activity Against A375 and SK-MEL-5
(§3) A375 and SK-MEL-5 cells were purchased from American Type Culture Collection (ATCC, Ro ckv ille, MD, USA) and maintained in Dulbecco’s modified eagle medium (DMEM, Welgene, Daegu, Republic of Korea) supplemented with 10% fetal bovine serum (FBS, Welgene, Daegu, Republic of Korea) and 1% penicillin/streptomycin (Welgene, Daegu, Republic of Korea) in a hu midified atmo sphere with 5% CO2 at 37 °C. Both cells were taken from culture substrate with 0.05% trypsin-0.02% EDTA and plated at a density of 5 × 10^3 cells/well in 96 well plates and then incubated at 37 °C fo r 24 h in a hu midified atmo sphere with 5% CO2 prior to treatment with various concentrations (3-fold serial dilution, 12 points) of the tested compounds. The cells were incubated for 48 h after treatment with the test compounds. The cell viability was assessed by the conventional 3-(4,5-dimethylthiazol-2-yl)-2,5-diphenyltetrazolium bromide (MTT) reduction assay. MTT assays were carried out with CellTiter 96® (Promega) according to the manufacturer’s instructions. The absorbance at 590 nm was recorded using EnVision 2103 (Perkin Elmer; Bo ston , MA, USA). The IC50 values were calculated using GraphPad Prism 4.0

[2] = tested on: SK-MEL-5 cells; test: Antiproliferative MTT assay; assay type: cell-based; details: Homo sapiens, 48 h, mean ± S.D. of two experiments
Protocol: as §1, §2, §3

## CNC(=O)c1cc(Oc2ccc(NC(=O)Nc3ccc(Cl)c(C(F)(F)F)c3)cc2)ccn1 [Sorafenib, reference compound]
[1]
  IC50: 5.25 ± 0.74 µM
[2]
  IC50: 9.22 ± 0.81 µM

— paper PMC8508980, “Design, Synthesis and Anticancer Profile of New 4-(1H-benzo[d]imidazol-1-yl)pyrimidin-2-amine-Linked Sulfonamide Derivatives with V600EBRAF Inhibitory Effect” (International Journal of Molecular Sciences, 2021)
